According to patent publication US20220146526A1, “METHOD FOR EVALUATING SAMPLE, ANALYSIS METHOD, METHOD FOR DETECTING DEGRADED SAMPLE, MARKER FOR DETECTING DEGRADED BLOOD PLASMA SAMPLE, AND MARKER FOR DETECTING DEGRADED SERUM SAMPLE” (SHIMADZU CORPORATION, priority 2019, published 2022):

Assays:
Type in all cases: physicochemical, human
[1] = LC/MS of blood plasma sample: time from blood collection to centrifugation (Table D); settings: for Rate of increase or decrease: detection intensity relative to 1 at 15 minutes; for Rate of increase or decrease / Increase or decrease: blood collection to centrifugation; for Increase or decrease: detection intensity
How it was run: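 Healthy-subject blood (5 mL, EDTA) cooled and held at 4 °C before centrifugation (4 °C, 3000 rpm, 15 min), with plasma then frozen. LC/MS on Discovery HS F5-3 column at 40 °C, 0.1% formic acid water/acetonitrile, 0.25 mL/min, electrospray, MRM; intensities relative to 15 min collection-to-centrifugation set as 1.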

[2] = LC/MS of blood plasma sample: time from blood collection to cooling of blood (Table E); parameters: key to Rate of increase or decrease / Rate of increase or decrease (first value, increase): detection intensity relative to ≤1 min to cooling = 1; settings: for Rate of increase or decrease: detection intensity relative to 1 at 1 minute or less, blood collection to cooling 5 minutes; for Increase or decrease: detection intensity, blood collection to cooling 5 minutes or more vs 1 minute or less
Protocol: At room temperature, 5 mL of blood from a healthy subject was taken into a blood-collecting vessel containing EDTA, and the blood-collecting vessel was inverted for mixing, then cooled, and allowed to stand at 4° C. Here, in order to investigate how the detection intensity of molecules contained in the sample was affected in a case where the time to cooling was set to 5 minutes or more as compared to that in a case where the time to cooling was set to 1 minute or less, preparations were performed under both the former condition and the latter condition. After standing, the blood sample was subjected to centrifugation under a condition of 4° C., 3000 rpm, and 15 minutes. […] After centrifugation, the blood-collecting vessel was left to stand at room temperature for 30 minutes, and the blood plasma was isolated during this 30 minutes. The obtained blood plasma sample was frozen and stored. Here, in order to investigate how the detection intensity of molecules contained in the sample was affected in cases where freezing and thawing was performed 4 times, 6 times, and 10 times after freezing as compared to that in a case where freezing and thawing was performed 2 times after freezing, freezing and thawing was performed under the respective conditions of 2, 4, 6, and 10 times.
(§1) Frozen blood plasma samples and serum samples were subjected to GC/MS or LC/MS. In GC/MS, the blood plasma samples and serum samples were subjected to methoxymation and trimethylsilylation and then introduced to GC-MS.
(§2) Analysis column: Discovery HS F5-3 (inner diameter of 2.1 mm, length of 150 mm, film thickness of 3 μm) (Sigma-Aldrich)
(§3) Column temperature: 40° C.
(§4) (A) 0.1% formic acid (dissolved in water)
(§5) (B) 0.1% formic acid (dissolved in acetonitrile)
(§6) Flow velocity: 0.25 mL/min
(§7) Ionization method: electrospray
(§8) Temperature: • Desolvation Line (DL) temperature: 250° C. • Heat block temperature: 400° C. • Interface temperature: 300° C.
(§9) Gas flow rate: • Nebulizer gas flow rate: 3.0 L/min • Drying gas flow rate: 10.0 L/min • Heating gas flow rate: 10.0 L/min
(§10) Mode: multiple reaction monitoring (MRM)
The rate of increase or decrease in Table E is the value of detection intensity relative to 1 that is the detection intensity in a case where the time from blood collection to cooling is set to 1 minute or less.

[3] = LC/MS of blood plasma sample: number of times of freezing and thawing (Table F); settings: for Increase or decrease: detection intensity; for Rate of increase or decrease: detection intensity relative to 1 at 2 times
How it was run: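 Human blood from a healthy subject drawn into EDTA tubes, cooled to 4° C within 1 min or after ≥5 min, centrifuged at 4° C, 3000 rpm, 15 min. Plasma frozen, then freeze-thawed 2, 4, 6 or 10 times and analysed by LC/MS (ESI, MRM). Intensities expressed relative to 2 freeze-thaw cycles set as 1.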

[4] = LC/MS of serum sample: time from blood collection to centrifugation (Table J); settings: for Rate of increase or decrease: after 4 hours from blood collection to centrifugation, detection intensity relative to 1 at 15 minutes; for Increase or decrease / Time when compound is affected: serum sample, LC/MS; for Increase or decrease: detection intensity vs 15 minutes from blood collection to centrifugation; for Time when compound is affected: time from blood collection to centrifugation, detection intensity changed by 30% or more vs 15 minutes
How it was run: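 Serum from blood centrifuged at room temperature, 3500 rpm, 5 min, then frozen; analysed by LC/MS on a Discovery HS F5-3 column at 40 °C. Mobile phase: 0.1% formic acid in water/acetonitrile, 0.25 mL/min, electrospray MRM. Values are intensity relative to a 15 min collection-to-centrifugation time.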

[5] = LC/MS of serum sample: number of times of freezing and thawing (Table M); parameters: key to Rate of increase or decrease: detection intensity relative to 1 at 2 freeze-thaw cycles; settings: for Number of times when compound is affected / Increase or decrease: serum sample, LC/MS; for Number of times when compound is affected: detection intensity changed by 30% or more vs 2 times of freezing and thawing; for Increase or decrease: detection intensity vs 2 times of freezing and thawing
How it was run: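 Serum was isolated at room temperature after centrifugation at room temperature, 3500 rpm, 5 minutes, then frozen and freeze-thawed 2, 4, 6 or 10 times. LC/MS used a Discovery HS F5-3 column at 40° C with formic acid water/acetonitrile, electrospray MRM. Intensity is relative to 2 freeze-thaw cycles.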

[6] = LC/MS of serum sample: time from centrifugation to isolation (Table K); parameters: key to Rate of increase or decrease: detection intensity relative to the 30-minute value set as 1; settings: for Rate of increase or decrease: detection intensity relative to 1 at 30 minutes; for Increase or decrease / Time when compound is affected: serum sample, LC/MS; for Increase or decrease: detection intensity vs 30 minutes from centrifugation to isolation; for Time when compound is affected: time from centrifugation to isolation, detection intensity changed by 30% or more vs 30 minutes
Protocol: After standing, the blood sample was subjected to centrifugation under a condition of room temperature, 3500 rpm, and 5 minutes. […] After centrifugation, the blood-collecting vessel was left to stand at room temperature, and the serum was isolated during this time. Here, in order to investigate how the detection intensity of molecules contained in the sample was affected in cases where the time during which the blood-collecting vessel was left at room temperature was set to 1 hour and 6 hours as compared to that in a case where the time was set to 30 minutes, preparations were performed under the respective conditions of 30 minutes, 1 hour, and 6 hours. The obtained serum sample was frozen and stored. Here, in order to investigate how the detection intensity of molecules contained in the sample was affected in cases where freezing and thawing was performed 4 times, 6 times, and 10 times after freezing as compared to that in a case where freezing and thawing was performed 2 times after freezing, freezing and thawing was performed under the respective conditions of 2, 4, 6, and 10 times.
as §1, §2, §3, §4, §5, §6, §7, §8, §9, §10
The rate of increase or decrease in Table K is the value of detection intensity relative to 1 that is the detection intensity in a case where the time from centrifugation to isolation is set to 30 minutes.

[7] = GC/MS of blood plasma sample: time from blood collection to centrifugation (Table A); settings: blood collection to centrifugation
How it was run: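 EDTA blood from a healthy subject was cooled at 4° C, centrifuged at 4° C, 3000 rpm, 15 minutes, and plasma was frozen. After methoxymation and trimethylsilylation, samples ran on GC/MS (BPX5 column, 60-330° C gradient, electron ionization, MRM). Intensity is relative to 15 minutes from collection to centrifugation.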

[8] = GC/MS of blood plasma sample: number of times of freezing and thawing (Table C)
How it was run: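 EDTA plasma from a healthy subject, cooled within 1 min or after 5+ min, centrifuged 4 °C/3000 rpm/15 min, frozen, then freeze-thawed 2, 4, 6 or 10 times. Methoximated, trimethylsilylated samples run by GC/MS (BPX5 column, EI, MRM). Values are detection intensity relative to 2 freeze-thaw cycles set as 1.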

[9] = 6 times of freezing and thawing, detection intensity relative to 1 at 2 times
[10] = freezing and thawing 10 times vs 2 times
[11] = freezing and thawing 4 times vs 2 times
[12] = after 1 hour from centrifugation to isolation
[13] = 4 times of freezing and thawing, detection intensity relative to 1 at 2 times
[14] = 6 times of freezing and thawing, relative to 1 at 2 times, different from individual to individual, first value (increase)
[15] = 6 times of freezing and thawing, relative to 1 at 2 times, different from individual to individual, second value (decrease)

Rate of increase or decrease ([1]; after 4 hours)	Increase or decrease ([1]; after 4 hours vs 15 minutes)	Rate of increase or decrease [2]	Increase or decrease [2]	Increase or decrease [4]	Time when compound is affected [4]	Number of times when compound is affected [5] [times]	Increase or decrease [5]	Rate of increase or decrease ([3]; freezing and thawing 4 times)	Increase or decrease [3, 11]	Increase or decrease [6]	Time when compound is affected [6]	Structure (SMILES)	further results
1.44	Increase	1.40	Increase	Increase	After 4 hours	6	Decrease	–	–	–	–	NC(=O)c1cccnc1 [Nicotinamide]	Increase or decrease ([3]; freezing and thawing 6 times vs 2 times): Increase; Rate of increase or decrease [4]: 2.16; Rate of increase or decrease [5, 9]: 0.69
1.56	Increase	–	Different from individual	–	–	4	Decrease	1.50	Increase	Decrease	After 1 hour hours	Nc1ncnc2c1ncn2[C@@H]1O[C@H](COP(=O)(O)O)[C@@H](O)[C@H]1O [Adenosine monophosphate]	Rate of increase or decrease (second value, decrease) ([2]; different from individual to individual, individuals with decrease, relative to 1 at 1 minute or less, collection to cooling 5 minutes): 0.62; Rate of increase or decrease (first value, increase) ([2]; different from individual to individual, individuals with increase, relative to 1 at 1 minute or less, collection to cooling 5 minutes): 1.43; Rate of increase or decrease [6, 12]: 0.13; Rate of increase or decrease [5, 13]: 0.23
2.57	Increase	2.30	Increase	Decrease	After 4 hours	6	Different from individual	0.95	Decrease	–	–	N[C@@H](Cc1ccc(O)c(O)c1)C(=O)O [Dopa]	Rate of increase or decrease [4]: 0.56; Rate of increase or decrease [5, 14]: 1.30; Rate of increase or decrease [5, 15]: 0.31
–	–	1.31	Increase	–	–	4	Decrease	1.37	Increase	Decrease	After 1 hour hours	Nc1ncnc2nc[nH]c12 [Adenine]	Rate of increase or decrease ([1]; after 6 hours): 0.63; Increase or decrease ([1]; after 6 hours vs 15 minutes): Decrease; Rate of increase or decrease [6, 12]: 0.39; Rate of increase or decrease [5, 13]: 0.57
2.20	Increase	1.41	Increase	Increase	After 12 hours	10	Decrease	–	–	Increase	After 6 hours	O=C(O)[C@@H]1CCCN1 [Proline]	Rate of increase or decrease ([6]; after 6 hours from centrifugation to isolation): 2.35; Rate of increase or decrease ([5]; 10 times of freezing and thawing, detection intensity relative to 1 at 2 times): 0.59
–	–	0.66	Decrease	–	–	6	Different from individual	–	–	–	–	CN(C)CC(=O)O [Dimethylglycine]	Rate of increase or decrease ([7]; detection intensity relative to 1 at 15 minutes, after 12 hours): 1.41; Increase or decrease ([7]; detection intensity, after 12 hours vs 15 minutes): Increase; Rate of increase or decrease ([8]; detection intensity relative to 1 at 2 times, freezing and thawing 10 times): 1.34; Increase or decrease ([8]; detection intensity, freezing and thawing 10 times vs 2 times): Increase; Increase or decrease ([1]; after 12 hours vs 15 minutes): Different from individual; Rate of increase or decrease (second value, decrease) ([1]; different from individual to individual, individuals with decrease, relative to 1 at 15 minutes, collection to centrifugation, after 12 hours): 0.63; Rate of increase or decrease (first value, increase) ([1]; different from individual to individual, individuals with increase, relative to 1 at 15 minutes, collection to centrifugation, after 12 hours): 1.57; Rate of increase or decrease ([3]; freezing and thawing 10 times): 1.37; Increase or decrease [3, 10]: Increase; Rate of increase or decrease [5, 14]: 1.34; Rate of increase or decrease [5, 15]: 0.61

Structure (SMILES)	Rate of increase or decrease ([1]; after 4 hours)	Increase or decrease ([1]; after 4 hours vs 15 minutes)	Rate of increase or decrease [2]	Increase or decrease [2]	Increase or decrease [4]	Time when compound is affected [4]	Number of times when compound is affected [5] [times]	Increase or decrease [5]	Rate of increase or decrease ([3]; freezing and thawing 4 times)	Increase or decrease [3, 11]	Increase or decrease [6]	Time when compound is affected [6]	further results
C[C@H](CCC(=O)O)[C@H]1CC[C@H]2[C@@H]3[C@H](O)C[C@@H]4C[C@H](O)CC[C@]4(C)[C@H]3C[C@H](O)[C@]12C [Cholic acid]	–	–	1.36	Increase	–	–	6	Decrease	–	–	–	–	Rate of increase or decrease ([1]; after 12 hours): 1.99; Increase or decrease ([1]; after 12 hours vs 15 minutes): Increase; Rate of increase or decrease ([3]; freezing and thawing 10 times): 3.26; Increase or decrease [3, 10]: Increase; Rate of increase or decrease [5, 9]: 0.57
